Legend:
Type in all cases: in vivo
Plutella xylostella = test: Test of Efficacy on Plutella xylostella (cabbage leaf dip); settings: foliar, 72 h, cabbage leaves dipped 30 seconds, second instar larvae, after 3 days, read-out: insecticidal rate
Description: 5 parts of the heteroaryl azole compound of the present invention, 93.6 parts of dimethylformamide, and 1.4 parts of polyoxyethylene alkyl aryl ether were mixed and dissolved to prepare emulsion (I) containing 5% of the active ingredient. An insecticidal rate was calculated according to the following expression: Insecticidal rate (%)=(The number of dead insects/The number of tested insects)×100 The emulsion (I) was diluted with water such that the concentration of the compound of the present invention was 125 ppm. Cabbage leaves were dipped in the dilution for 30 seconds. The resulting cabbage leaves were placed in a petri dish. Five second instar larvae of Plutella xylostella were released thereto. The petri dish was placed in a thermostat chamber having a temperature of 25° C. and a humidity of 60%. Life and death were determined after 3 days from the release of the insects, and the insecticidal rate was calculated. The test was conducted in duplicate.

Phyllotreta striolata = test: Test of Efficacy on Phyllotreta striolata (spray on Qing geng cai seedlings); settings: 168 h, sprayed to Qing geng cai seedlings, adults, after 7 days, read-out: insecticidal rate
Description: (§1) 5 parts of the heteroaryl azole compound of the present invention, 93.6 parts of dimethylformamide, and 1.4 parts of polyoxyethylene alkyl aryl ether were mixed and dissolved to prepare emulsion (I) containing 5% of the active ingredient.
(§2) An insecticidal rate was calculated according to the following expression: Insecticidal rate (%)=(The number of dead insects/The number of tested insects)×100
The emulsion (I) was diluted with water such that the concentration of the compound of the present invention was 125 ppm to prepare a test chemical. The test chemical was sprayed to Qing geng cai seedlings (at the seventh true leaf stage) planted in 10-cm pots. The Qing geng cai seedlings were dried in air and then placed in a plastic cup. Ten Phyllotreta striolata adults were released thereto. The plastic cup was stored in a thermostat chamber having a temperature of 25° C. and a humidity of 65%. Life and death were determined after 7 days from the release of the insects, and the insecticidal rate was calculated. The test was conducted in duplicate.

Mythimna separata = test: Test of Efficacy on Mythimna separata (test feed); settings: 1 μl of emulsion (I) (5% active ingredient) in 0.8 g artificial feed; second instar larvae; 25° C.; fifth day
Description: 5 parts of the heteroaryl azole compound of the present invention, 93.6 parts of dimethylformamide, and 1.4 parts of polyoxyethylene alkyl aryl ether were mixed and dissolved to prepare emulsion (I) containing 5% of the active ingredient. For a control, 98.5 parts of dimethylformamide and 1.5 parts of polyoxyethylene alkyl aryl ether were mixed and dissolved to prepare emulsion (II). An insecticidal rate was calculated according to the following expression: Insecticidal rate (%)=(The number of dead insects/The number of tested insects)×100 0.8 g of commercially available artificial feed (Insecta LFS, manufactured by Nosan Corp.) and 1 μl of the emulsion (I) were well mixed to obtain test feed. A plastic test container (capacity: 1.4 ml) was packed with 0.2 g of the test feed per treatment plot. Then, two second instar larvae of Mythimna separata were inoculated to each treatment plot. A plastic lid was put on the test container so as to prevent escape of the second instar larvae of Mythimna separata. The container was placed in a thermostat chamber of 25° C. On the fifth day, the insecticidal rate and the food intake were examined. The test was conducted in duplicate. The insecticidal rate and the food intake of a control plot were examined in the same way as in Test Example 1 except that the emulsion (I) was changed to the emulsion (II).

Aphis craccivora = test: Test of Efficacy on Aphis craccivora (spray on black-eyed peas); settings: 96 h, 125 ppm, sprayed to black-eyed peas, nymphs, after 4 days, read-out: insecticidal rate
Description: as §1, §2
Seedlings of black-eyed peas were raised in 10-cm pots. Aphis craccivora nymphs were inoculated onto primary leaves. The emulsion (I) was diluted with water such that the concentration of the compound of the present invention was 125 ppm. The dilution was sprayed to the black-eyed peas parasitized by the Aphis craccivora nymphs. The black-eyed peas were placed in a thermostat chamber having a temperature of 25° C. and a humidity of 60%. Life and death of Aphis craccivora were determined after 4 days from the spraying, and the insecticidal rate was calculated. The test was conducted in duplicate.

| Compound | pest or weed control at 125 ppm (Plutella xylostella) [%] | pest or weed control at 125 ppm (Phyllotreta striolata) [%] | insecticidal rate or food intake as compared with the control plot (Mythimna separata) | pest or weed control at 125 ppm (Aphis craccivora) [%] |
| --- | --- | --- | --- | --- |
| CCS(=O)(=O)c1cc(C2CC2)cnc1-c1ncn(-c2ccc(OC(F)(F)F)cc2)n1 [d-7] | ≥ 80 | ≥ 80 |  |  |
| CCS(=O)(=O)c1cc(-c2ncccn2)cnc1-c1ncn(CC(F)(F)C(F)(F)C(F)(F)F)c1C [c-5] | ≥ 80 | ≥ 80 | insecticidal rate of 100% for Mythimna separata or a food intake of 10% or less as compared with the control plot | ≥ 80 |
| CCS(=O)(=O)c1cc(-c2ccccn2)cnc1-c1ncn(-c2ccc(OC(F)(F)F)cc2)n1 [d-6] | ≥ 80 | ≥ 80 | insecticidal rate of 100% for Mythimna separata or a food intake of 10% or less as compared with the control plot | ≥ 80 |
| CCS(=O)(=O)c1cc(-c2ncccn2)cnc1-c1ncn(/C=C(\F)C(F)(F)I)c1C [c-9] | ≥ 80 | ≥ 80 |  |  |
| CCS(=O)(=O)c1cc(C2CC2)c[n+]([O-])c1-c1cn(-c2ccc(OC(F)(F)F)cc2)cn1 [d-22] | ≥ 80 | ≥ 80 |  | ≥ 80 |
| CCS(=O)(=O)c1cc(C2CC2)cnc1-c1cn(-c2ccc(OC(F)(F)F)cc2)cn1 [d-19, 5-cyclopropyl-3-(ethylsulfonyl)-2-(1-(4-(trifluoromethoxy)phenyl)-1H-imidazol-4-yl)pyridine] | ≥ 80 | ≥ 80 | insecticidal rate of 100% for Mythimna separata or a food intake of 10% or less as compared with the control plot | ≥ 80 |
| CCS(=O)(=O)c1cc(-c2ncccn2)cnc1-c1ncn(/C=C(\F)C(F)(F)C(F)(F)F)c1C [c-8] | ≥ 80 | ≥ 80 |  |  |
| CCS(=O)(=O)c1cc(-c2ccccn2)cnc1-c1cn(-c2ccc(OC(F)(F)F)cc2)cn1 [d-20] | ≥ 80 | ≥ 80 | insecticidal rate of 100% for Mythimna separata or a food intake of 10% or less as compared with the control plot | ≥ 80 |
| CCS(=O)(=O)c1cc(-c2ncccn2)cnc1-c1ncn(-c2ccc(OC(F)(F)F)cc2)n1 [d-1] | ≥ 80 | ≥ 80 |  |  |
| CCS(=O)(=O)c1cc(C2CC2)cnc1-c1ncn(-c2ccc(C(F)(F)F)cn2)n1 [d-4, 5-cyclopropyl-3-(ethylsulfonyl)-2-(1-(5-(trifluoromethyl)pyridin-2-yl)-1H-1,2,4-triazol-3-yl)pyridine] | ≥ 80 |  | insecticidal rate of 100% for Mythimna separata or a food intake of 10% or less as compared with the control plot | ≥ 80 |
